Assay type in all cases: cell-based
One test addresses T1, human M1 receptor (Homo sapiens, UniProt P11229).
T1 sequence (P11229 1-460): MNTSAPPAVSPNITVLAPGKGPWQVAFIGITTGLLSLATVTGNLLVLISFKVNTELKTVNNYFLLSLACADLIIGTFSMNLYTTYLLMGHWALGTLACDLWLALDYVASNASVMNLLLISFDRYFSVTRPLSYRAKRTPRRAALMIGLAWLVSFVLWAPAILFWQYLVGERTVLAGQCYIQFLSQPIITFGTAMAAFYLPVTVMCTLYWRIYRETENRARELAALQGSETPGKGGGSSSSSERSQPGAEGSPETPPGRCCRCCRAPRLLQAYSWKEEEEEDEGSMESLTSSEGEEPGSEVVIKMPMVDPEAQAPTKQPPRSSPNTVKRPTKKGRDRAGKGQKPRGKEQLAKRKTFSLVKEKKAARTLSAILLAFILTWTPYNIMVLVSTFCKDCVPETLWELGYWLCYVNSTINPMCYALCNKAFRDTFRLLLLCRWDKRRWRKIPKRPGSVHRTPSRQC
The experiment in a line: In vitro functional assay of muscarinic acetylcholine receptor activity (aequorin calcium flux, antagonist mode vs EC80 acetylcholine), M1. A digest of the protocol: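 CHO-K1 cells stably co-expressing human M1 and aequorin were loaded with 5 uM coelenterazine h for 4 h at room temperature in the dark. IC50 came from the drop in luminescence.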

The next test concerns the target M3 (Homo sapiens, UniProt P20309). Put plainly: In vitro functional assay of muscarinic acetylcholine receptor activity, M3.
The target in a further test is T2, M2 (Homo sapiens, UniProt P08172).
T2 sequence (P08172 1-466): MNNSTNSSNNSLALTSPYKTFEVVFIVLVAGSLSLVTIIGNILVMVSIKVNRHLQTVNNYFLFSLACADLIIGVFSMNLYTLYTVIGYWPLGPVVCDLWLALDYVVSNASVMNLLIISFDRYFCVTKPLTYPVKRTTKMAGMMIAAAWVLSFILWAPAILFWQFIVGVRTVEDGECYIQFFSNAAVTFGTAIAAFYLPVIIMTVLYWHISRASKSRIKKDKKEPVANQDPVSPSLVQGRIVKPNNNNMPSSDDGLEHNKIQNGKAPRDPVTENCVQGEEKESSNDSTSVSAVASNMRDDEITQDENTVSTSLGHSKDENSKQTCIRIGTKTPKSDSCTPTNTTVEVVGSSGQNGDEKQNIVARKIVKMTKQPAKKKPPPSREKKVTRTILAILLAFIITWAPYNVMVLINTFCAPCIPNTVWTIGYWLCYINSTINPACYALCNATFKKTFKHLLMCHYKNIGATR
Put plainly: In vitro functional assay of muscarinic acetylcholine receptor activity, M2.

Setting [1] is: CHO-K1 cells stably expressing human M1 receptor with Aequorin, decrease in EC80 acetylcholine response, read-out: M1 IC50.
The mark [2] stands for this setting: antagonist IC50 at M3, read-out: M3 IC50.
The mark [3] stands for this setting: antagonist IC50 at M2, read-out: M2 IC50.

This note sets out measurements from patent US11512090B2, “Muscarinic acetylcholine M1 receptor antagonists” (PIPELINE THERAPEUTICS, INC., priority 2018, dated 2022).

As usually defined, the pIC50 is the negative decadic logarithm of the IC50, by convention in mol/L.

pIC50: −log10 of the molar value. Read-outs that look alike come from different tables or passages of the source.

M3, sequence (P20309 whole entry): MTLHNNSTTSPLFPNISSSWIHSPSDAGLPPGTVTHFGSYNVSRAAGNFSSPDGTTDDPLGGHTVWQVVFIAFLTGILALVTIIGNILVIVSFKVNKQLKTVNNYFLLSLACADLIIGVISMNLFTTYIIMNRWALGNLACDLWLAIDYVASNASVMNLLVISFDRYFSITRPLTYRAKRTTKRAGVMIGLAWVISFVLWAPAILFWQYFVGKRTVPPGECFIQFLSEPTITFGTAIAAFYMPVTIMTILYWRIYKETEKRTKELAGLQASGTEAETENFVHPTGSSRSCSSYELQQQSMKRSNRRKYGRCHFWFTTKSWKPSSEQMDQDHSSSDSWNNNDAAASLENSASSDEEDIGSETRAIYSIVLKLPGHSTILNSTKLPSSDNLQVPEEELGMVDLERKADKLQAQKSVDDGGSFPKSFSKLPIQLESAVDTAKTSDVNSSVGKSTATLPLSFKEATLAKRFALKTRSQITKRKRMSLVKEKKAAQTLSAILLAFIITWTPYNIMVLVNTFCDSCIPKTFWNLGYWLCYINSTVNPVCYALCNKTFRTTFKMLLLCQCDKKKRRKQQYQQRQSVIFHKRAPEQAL

Consider `O=C(CCS(=O)(=O)c1cccc2ncsc12)N1CCN(c2ccc(Cl)cn2)CC1` [Example 110, 3-(benzo[d]thiazol-7-ylsulfonyl)-1-(4-(5-chloropyridin-2-yl)piperazin-1-yl)propan-1-one], for which the pIC50 on human M1 receptor (setting [1]) is 6.00 to 7.00; on M3 (setting [2]), 5.00 to 6.00; on M2 (setting [3]) it was less than 5.00.

`N#Cc1ccc(N2CCN(C(=O)CCS(=O)(=O)c3cccc4ncsc34)CC2)nc1` [Example 111, 6-(4-(3-(benzo[d]thiazol-7-ylsulfonyl)propanoyl)piperazin-1-yl)nicotinonitrile]: the figures for the pIC50 at human M1 receptor (setting [1]), at M3 (setting [2]) and on M2 (setting [3]) were greater than 7.00, 5.00 to 6.00 and 5.00 to 6.00, respectively.

As to `O=C(CCS(=O)(=O)c1cccc2ncsc12)N1CCN(c2ncc(C(F)(F)F)cn2)CC1` [Example 112, 3-(benzo[d]thiazol-7-ylsulfonyl)-1-(4-(5-(trifluoromethyl)pyrimidin-2-yl)piperazin-1-yl)propan-1-one], the pIC50 on human M1 receptor (setting [1]) was 5.00 to 6.00; at M3 (setting [2]), 5.00 to 6.00; at M2 (setting [3]), less than 5.00.

As for `C[C@H]1CN(c2ccn3nccc3c2)CCN1C(=O)CCS(=O)(=O)c1cccc2ncsc12` [Example 113, (S)-3-(benzo[d]thiazol-7-ylsulfonyl)-1-(2-methyl-4-(pyrazolo[1,5-a]pyridin-5-yl)piperazin-1-yl)propan-1-one], the pIC50 at human M1 receptor (setting [1]) was 5.00 to 6.00; at M3 (setting [2]) it was less than 5.00; on M2 (setting [3]) it was 5.00 to 6.00.

As to `C[C@H]1CN(c2ccc(C#N)nc2)CCN1C(=O)CCS(=O)(=O)c1cccc2ncsc12` [Example 114, (S)-5-(4-(3-(benzo[d]thiazol-7-ylsulfonyl)propanoyl)-3-methylpiperazin-1-yl)picolinonitrile], the pIC50 at human M1 receptor (setting [1]) is 6.00 to 7.00; on M3 (setting [2]) it was 5.00 to 6.00; at M2 (setting [3]), 5.00 to 6.00.

Regarding `C[C@H]1CN(c2cnc(C(F)(F)F)nc2)CCN1C(=O)CCS(=O)(=O)c1cccc2ncsc12` [Example 115, (S)-3-(benzo[d]thiazol-7-ylsulfonyl)-1-(2-methyl-4-(2-(trifluoromethyl)pyrimidin-5-yl)piperazin-1-yl)propan-1-one], the pIC50 was less than 5.00 on human M1 receptor (setting [1]), 5.00 to 6.00 on M3 (setting [2]) and less than 5.00 at M2 (setting [3]).

Take `C[C@H]1CN(c2cc(F)c(F)c(F)c2)CCN1C(=O)CCS(=O)(=O)c1cccc2ncsc12` [Example 116, (S)-3-(benzo[d]thiazol-7-ylsulfonyl)-1-(2-methyl-4-(3,4,5-trifluorophenyl)piperazin-1-yl)propan-1-one]: the pIC50 at human M1 receptor (setting [1]), at M3 (setting [2]) and at M2 (setting [3]) was 5.00 to 6.00 each time.

Consider `C[C@H]1CN(c2cc[nH]c(=O)c2)CCN1C(=O)CCS(=O)(=O)c1cccc2ncsc12` [Example 117, (S)-4-(4-(3-(benzo[d]thiazol-7-ylsulfonyl)propanoyl)-3-methylpiperazin-1-yl)pyridin-2(1H)-one], for which the pIC50 at human M1 receptor (setting [1]) is 5.00 to 6.00; on M3 (setting [2]), less than 5.00; on M2 (setting [3]), less than 5.00.

In the case of `O=C(CNCCc1cccn2nccc12)N1C[C@H]2CC[C@@H](C1)N2c1ccncc1F` [Example 118, 1-((1R,5S)-8-(3-fluoropyridin-4-yl)-3,8-diazabicyclo[3.2.1]octan-3-yl)-2-((2-(pyrazolo[1,5-a]pyridin-4-yl)ethyl)amino)ethan-1-one], the pIC50 on human M1 receptor (setting [1]) was 5.00 to 6.00; at M3 (setting [2]), less than 5.00; on M2 (setting [3]) it was less than 5.00.

Take `C[C@H]1CN(c2ccc(C#N)cn2)CCN1C(=O)CCS(=O)(=O)c1cccc2ncsc12` [Example 120, 6-[(3S)-4-[3-(1,3-benzothiazole-7-sulfonyl)propanoyl]-3-methylpiperazin-1-yl]pyridine-3-carbonitrile]: the pIC50 on human M1 receptor (setting [1]) was 6.00 to 7.00; at M3 (setting [2]) it was 5.00 to 6.00; at M2 (setting [3]), 5.00 to 6.00.

As for `O=C(CCS(=O)(=O)c1c(F)ccc2nccn12)N1CC2CCC(C1)N2c1ccc(F)cn1` [Example 121, 3-({6-fluoroimidazo[1,2-a]pyridin-5-yl}sulfonyl)-1-[8-(5-fluoropyridin-2-yl)-3,8-diazabicyclo[3.2.1]octan-3-yl]propan-1-one], the results for the pIC50 at human M1 receptor, at M3 (setting [2]) and at M2 (setting [3]) were greater than 7.00, greater than 7.00 and 6.00 to 7.00, respectively.

Regarding `N#Cc1cc(N2C3CCC2CN(C(=O)CCS(=O)(=O)c2cccc4ncsc24)C3)ccc1F` [Example 122, 5-{3-[3-(1,3-benzothiazole-7-sulfonyl)propanoyl]-3,8-diazabicyclo[3.2.1]octan-8-yl}-2-fluorobenzonitrile], the pIC50 at human M1 receptor was greater than 7.00; at M3, greater than 7.00; on M2 (setting [3]), less than 5.00.

As for `Cc1cc(Cl)cnc1N1CCN(C(=O)CCNCc2cccc3nccn23)[C@H](C)C1` [Example 123, 1-[(2R)-4-(5-chloro-3-methylpyridin-2-yl)-2-methylpiperazin-1-yl]-3-[({imidazo[1,2-a]pyridin-5-yl}methyl)amino]propan-1-one], the results for the pIC50 at human M1 receptor (setting [1]), at M3 (setting [2]) and at M2 (setting [3]) were 5.00 to 6.00, 5.00 to 6.00 and less than 5.00, respectively.

As for `Cc1cc(C#N)cnc1N1CCN(C(=O)CCS(=O)(=O)c2cccc3ncsc23)[C@@H](C)C1` [Example 124, 6-[(3S)-4-[3-(1,3-benzothiazole-7-sulfonyl)propanoyl]-3-methylpiperazin-1-yl]-5-methylpyridine-3-carbonitrile], the pIC50 is greater than 7.00 on human M1 receptor (setting [1]), 6.00 to 7.00 at M3 (setting [2]) and 6.00 to 7.00 at M2 (setting [3]).

`N#Cc1ccc(N2CC3CCC2CN3C(=O)CCS(=O)(=O)c2cccc3ncsc23)nc1` (stereo not drawn) [Example 125, 6-{5-[3-(1,3-benzothiazole-7-sulfonyl)propanoyl]-2,5-diazabicyclo[2.2.2]octan-2-yl}pyridine-3-carbonitrile]: the pIC50 at human M1 receptor (setting [1]) was greater than 7.00; at M3 (setting [2]), 6.00 to 7.00; on M2 (setting [3]) it was 6.00 to 7.00.

As to `CC1CN(c2ccc(C#N)cn2)[C@H](C)CN1C(=O)CCS(=O)(=O)c1cccc2ncsc12` (stereo partly drawn) [Example 126, 6-[(2R)-4-[3-(1,3-benzothiazole-7-sulfonyl)propanoyl]-2,5-dimethylpiperazin-1-yl]pyridine-3-carbonitrile], the pIC50 was 6.00 to 7.00 at human M1 receptor (setting [1]), less than 5.00 at M3 (setting [2]) and less than 5.00 on M2 (setting [3]).

Take `Cc1cc(F)cnc1N1CC(C)N(C(=O)CCS(=O)(=O)c2cccc3ncsc23)C[C@H]1C` (stereo partly drawn) [Example 127, 3-(1,3-benzothiazole-7-sulfonyl)-1-[(5R)-4-(5-fluoro-3-methylpyridin-2-yl)-2,5-dimethylpiperazin-1-yl]propan-1-one]: the pIC50 at human M1 receptor (setting [1]) is greater than 7.00; at M3 (setting [2]) it was 5.00 to 6.00; on M2 (setting [3]) it was 6.00 to 7.00.

Consider `N#Cc1ccc(N2CCN(C(=O)CCCc3cccc4ncoc34)CC2)nc1` [Example 129, 6-{4-[4-(1,3-benzoxazol-7-yl)butanoyl)piperazin-1-yl}pyridine-3-carbonitrile], for which the pIC50 on human M1 receptor (setting [1]) was 6.00 to 7.00; at M3 (setting [2]) it was less than 5.00; at M2 (setting [3]), 5.00 to 6.00.

As for `N#Cc1cc(N2C3CCC2CN(C(=O)CCS(=O)(=O)c2cccc4nccn24)C3)ccc1F` [Example 130, 2-fluoro-5-[3-(3-{imidazo[1,2-a]pyridine-5-sulfonyl}propanoyl)-3,8-diazabicyclo[3.2.1]octan-8-yl)benzonitrile], the pIC50 was greater than 7.00 on human M1 receptor, less than 5.00 on M3 (setting [2]) and 5.00 to 6.00 at M2 (setting [3]).

In the case of `N#Cc1cc(N2C3CCC2CN(C(=O)CCNCc2c(F)ccc4nccn24)C3)ccc1F` [Example 131, 2-fluoro-5-(3-{3-[({6-fluoroimidazo[1,2-a]pyridin-5-yl}methyl)amino]propanoyl}-3,8-diazabicyclo[3.2.1]octan-8-yl)benzonitrile], the pIC50 on human M1 receptor was 6.00 to 7.00; on M3 (setting [2]) it was less than 5.00; at M2 (setting [3]), less than 5.00.

As for `N#Cc1ccc(N2CC3CCC(C2)N3C(=O)CCS(=O)(=O)c2cccc3ncsc23)nc1` [Example 132, 6-{8-{3-(1,3-benzothiazole-7-sulfonyl)propanoyl]-3,8-diazabicyclo[3.2.1]octan-3-yl}pyridine-3-carbonitrile], the results for the pIC50 on human M1 receptor, on M3 (setting [2]) and against M2 were greater than 7.00, 5.00 to 6.00 and 6.00 to 7.00, respectively.

For `N#Cc1ccc(N2C3COCC2CN(C(=O)CCS(=O)(=O)c2cccc4ncsc24)C3)nc1` [Example 133, 6-{7-[3-(1,3-benzothiazole-7-sulfonyl)propanoyl]-3-oxa-7,9-diazabicyclo[3.3.1]nonan-9-yl}pyridine-3-carbonitrile], the values for the pIC50 on human M1 receptor, at M3 (setting [2]) and against M2 were greater than 7.00, less than 5.00 and 6.00 to 7.00, respectively.
